This passage reports IC50 results from BindingDB's records for patent US11780845 (Relay Therapeutics, 2023).

For this assay, the target named is Fibroblast growth factor receptor 2 (Homo sapiens, UniProt P21802). The assay can be described thus: FGFR2 Biochemical Caliper Assay. On the procedure: Compounds of the present invention were also tested in a FGFR2 Biochemical Caliper Assay. Compounds were prepared in 10 mM DMSO solution and serially diluted into 11 concentrations by 3-fold dilution. […] 5 uL of ATP solution (100 uM) was added to start the reaction and the plate was incubated for 90 minutes, then 70 uL of stopping buffer (0.5M EDTA) was added to terminate the reaction. Each well was analyzed using EZ reader.
Sequence of Fibroblast growth factor receptor 2 (P21802 whole entry): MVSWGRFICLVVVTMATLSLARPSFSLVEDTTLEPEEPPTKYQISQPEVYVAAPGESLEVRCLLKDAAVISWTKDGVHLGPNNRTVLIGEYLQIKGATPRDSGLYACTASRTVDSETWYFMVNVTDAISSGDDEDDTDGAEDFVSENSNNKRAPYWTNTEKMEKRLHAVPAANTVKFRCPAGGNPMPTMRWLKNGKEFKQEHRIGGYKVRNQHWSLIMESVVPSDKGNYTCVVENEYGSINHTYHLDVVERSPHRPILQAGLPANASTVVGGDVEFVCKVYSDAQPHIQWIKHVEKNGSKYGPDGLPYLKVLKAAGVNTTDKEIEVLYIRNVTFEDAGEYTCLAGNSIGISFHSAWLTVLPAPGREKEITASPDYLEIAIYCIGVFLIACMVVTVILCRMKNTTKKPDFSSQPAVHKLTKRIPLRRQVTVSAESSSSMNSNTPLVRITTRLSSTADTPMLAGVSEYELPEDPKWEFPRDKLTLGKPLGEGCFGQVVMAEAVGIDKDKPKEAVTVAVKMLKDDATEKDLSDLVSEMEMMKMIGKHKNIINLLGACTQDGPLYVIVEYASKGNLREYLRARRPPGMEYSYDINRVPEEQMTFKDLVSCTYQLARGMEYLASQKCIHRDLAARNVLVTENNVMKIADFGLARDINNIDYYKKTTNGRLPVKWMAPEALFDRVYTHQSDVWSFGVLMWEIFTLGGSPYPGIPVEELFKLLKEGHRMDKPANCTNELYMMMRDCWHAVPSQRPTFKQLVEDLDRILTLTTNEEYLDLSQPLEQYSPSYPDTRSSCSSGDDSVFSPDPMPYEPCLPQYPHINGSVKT

`CC#CC(=O)Nc1ccc(-c2c(-c3ccc(Oc4cccc(C)n4)c(OC)c3)c3c(N)ncnc3n2C)cc1` registered an IC50 of less than 100 nM. As for `CC#CC(=O)N(C)c1ccc(-c2c(-c3ccc(Oc4cccc(C)n4)c(OC)c3)c3c(N)ncnc3n2C)cc1` [US11780845, Example 26], the IC50 is less than 100 nM. For `C=CC(=O)Nc1ccc(-c2c(-c3ccc(Oc4ccccc4)c(OC)c3)c3c(N)ncnc3n2C)cc1` [US11780845, Example 12] the value was less than 100 nM. For `C=CC(=O)Nc1ccc(-c2c(-c3ccc(Oc4cccc(C)c4)c(OC)c3)c3c(N)ncnc3n2C)cc1` [US11780845, Example 27] the value was less than 100 nM.
